19 compounds from patent US12180207B2 (ARRAY BIOPHARMA INC., priority 2018, dated 2024) can be followed below.

Assay [1] concerns the target recombinant human FGFR1 catalytic domain (amino acids 308-731) (Homo sapiens (Human), UniProt P11362). In words: FGFR1 enzyme activity assay (LanthaScreen TR-FRET). In kind it is biochemical. Conditions: 20 min incubation at 22° C., average of multiple determinations if made, read-out: FGFR1 Enz FRET IC50. In short, it runs like this:
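His-tagged FGFR1 kinase domain with 100 nM Alexa Fluor 647-poly-GT peptide and ATP in pH 7.5 HEPES/MgCl2 buffer with 2% DMSO, 20 min at 22 °C. Quenched with EDTA plus 2 nM Eu-PY20 antibody and read after 60 min. IC50 comes from a 4-parameter fit of percent of control.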
(In general: In TR-FRET formats the signal depends on donor and acceptor labels being close together.)

The target of assay [2] is recombinant human FGFR3 (amino acids R397-T806) (Homo sapiens (Human), UniProt P22607). In words: FGFR3 enzyme activity assay (LanthaScreen TR-FRET). In kind it is biochemical. Conditions: 25 μM ATP, 10 min incubation at 22° C., average of multiple determinations if made, read-out: FGFR3 Enz FRET IC50. The method in brief:
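GST-HIS6-tagged human FGFR3 (R397-T806) was reacted with 100 nM Alexa Fluor 647-Poly-GT substrate and 25 μM ATP plus compound in HEPES/MgCl2/Triton buffer, pH 7.5, 2% DMSO, for 10 min at 22 °C.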

The target in assay [3] is HEK-293 cells transfected with dox-inducible human wild type FGFR3 (Homo sapiens (Human), UniProt P22607). In words: FGFR3 pERK cell assay. Conditions: HEK-293 dox-inducible FGFR3, 1 hour compound, 100 ng/ml FGF-acidic; maximum concentration 5 μM. Format: cell-based. On the procedure: FGFR3 pERK Cell Assay: • HEK-293 cells transfected with dox-inducible human wild type FGFR3 (SEQ ID NO: 5) were plated in a collagen or poly-D-lysine coated 96 well flat bottom plates at 4×10^5 cells/well in complete DMEM medium containing 10% FBS and 1 μg/ml doxycycline and allowed to attach for 24 h at 37° C., 5% CO2. Cells were treated with compound using 1:3 serial dilutions with a maximum final concentration of 5 μM. Compound was incubated on cells for 1 hour at 37° C., 5% CO2. Cells were then stimulated with a final concentration of 100 ng/ml human FGF-acidic (R&D Systems Cat number 232-FA/CF) for 5 minutes at 37° C., 5% CO2. Medium was removed, and cells were lysed with lysis buffer containing phosphatase and protease inhibitors. Phospho ERK1/2 was measured using the Meso Scale Discovery sandwich assay (Meso Scale Discovery cat. no. K151DWD). The assay captures phospho ERK1/2 and detects with a sulfo-tagged total ERK1/2 antibody. The chemiluminescent signal was read on the Sector Imager Plate reader. 100 POC was determined using no test compounds and 0 POC was determined using a control compound. The POC values were fit to a 4-parameter logistic curve as a function of the concentration of the compound, and the IC50 value is the point where the curve crosses 50 POC.
HEK-293 cells transfected with dox-inducible human wild type FGFR3, sequence (P22607 23-806): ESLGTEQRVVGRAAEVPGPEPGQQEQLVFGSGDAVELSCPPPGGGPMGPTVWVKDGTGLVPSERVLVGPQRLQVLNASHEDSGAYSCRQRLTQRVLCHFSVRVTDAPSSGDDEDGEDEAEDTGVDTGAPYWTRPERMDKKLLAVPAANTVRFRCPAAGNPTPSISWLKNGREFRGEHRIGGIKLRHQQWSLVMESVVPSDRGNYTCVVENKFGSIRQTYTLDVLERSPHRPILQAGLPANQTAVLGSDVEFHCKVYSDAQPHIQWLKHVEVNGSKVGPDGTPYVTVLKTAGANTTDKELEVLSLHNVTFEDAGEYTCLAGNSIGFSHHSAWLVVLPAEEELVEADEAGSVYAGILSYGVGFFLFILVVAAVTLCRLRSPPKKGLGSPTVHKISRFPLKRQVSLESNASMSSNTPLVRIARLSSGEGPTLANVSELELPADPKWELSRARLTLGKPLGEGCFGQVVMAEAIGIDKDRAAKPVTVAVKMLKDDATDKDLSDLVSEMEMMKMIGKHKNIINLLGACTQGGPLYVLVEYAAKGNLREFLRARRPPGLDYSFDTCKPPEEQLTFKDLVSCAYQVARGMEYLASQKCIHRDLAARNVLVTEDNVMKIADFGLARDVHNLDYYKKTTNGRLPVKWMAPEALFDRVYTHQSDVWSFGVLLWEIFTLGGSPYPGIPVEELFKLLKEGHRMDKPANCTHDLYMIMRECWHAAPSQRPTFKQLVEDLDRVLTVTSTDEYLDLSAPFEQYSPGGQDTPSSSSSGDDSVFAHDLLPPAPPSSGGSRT

recombinant human FGFR3 (amino acids R397-T806), sequence (P22607 397-806): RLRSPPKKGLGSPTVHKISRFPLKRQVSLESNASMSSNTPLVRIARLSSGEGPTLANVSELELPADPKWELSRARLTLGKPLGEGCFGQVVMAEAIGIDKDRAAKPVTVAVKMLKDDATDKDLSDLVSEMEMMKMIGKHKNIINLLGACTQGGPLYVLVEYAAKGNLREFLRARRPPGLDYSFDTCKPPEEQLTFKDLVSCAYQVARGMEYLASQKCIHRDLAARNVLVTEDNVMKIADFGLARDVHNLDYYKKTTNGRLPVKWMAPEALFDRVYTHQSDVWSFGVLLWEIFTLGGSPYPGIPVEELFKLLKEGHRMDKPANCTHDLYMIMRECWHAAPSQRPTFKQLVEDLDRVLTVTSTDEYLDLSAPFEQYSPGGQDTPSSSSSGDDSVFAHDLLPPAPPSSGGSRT
recombinant human FGFR1 catalytic domain (amino acids 308-731), sequence (P11362 other isoform, or with tags, fused parts or gaps): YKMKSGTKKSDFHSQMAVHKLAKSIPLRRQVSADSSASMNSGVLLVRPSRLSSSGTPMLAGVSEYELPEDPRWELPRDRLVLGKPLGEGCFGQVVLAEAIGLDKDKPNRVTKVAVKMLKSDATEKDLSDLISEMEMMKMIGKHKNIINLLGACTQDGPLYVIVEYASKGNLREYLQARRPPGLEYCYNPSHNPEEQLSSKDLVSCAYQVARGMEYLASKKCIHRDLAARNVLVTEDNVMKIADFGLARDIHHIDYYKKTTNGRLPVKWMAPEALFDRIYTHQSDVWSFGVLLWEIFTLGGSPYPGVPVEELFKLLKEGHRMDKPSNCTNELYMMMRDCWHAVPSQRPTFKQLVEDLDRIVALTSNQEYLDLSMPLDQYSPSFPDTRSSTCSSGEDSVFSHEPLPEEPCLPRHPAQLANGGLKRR

As to `C=CC(=O)N1CCC(n2cc(-c3cc(OC)c4c(C#N)cnn4c3)cn2)CC1` [Example 11, 6-(1-(1-acryloylpiperidin-4-yl)-1H-pyrazol-4-yl)-4-methoxypyrazolo[1,5-a]pyridine-3-carbonitrile], the IC50 – broadly, the concentration that gives 50% inhibition – came to 22 nM in assay [1] and 7 nM in assay [2].

On to `C=CC(=O)N1CC(OC)(C(=O)N2CCC(n3nc(C)c(-c4cc(OC)c5c(C#N)cnn5c4)c3C)CC2)C1` [Example 95, 6-(1-(1-(1-acryloyl-3-methoxyazetidine-3-carbonyl)piperidin-4-yl)-3,5-dimethyl-1H-pyrazol-4-yl)-4-methoxypyrazolo[1,5-a]pyridine-3-carbonitrile], for which the IC50 was 842 nM in assay [1], 103 nM in assay [2] and 98 nM in assay [3].

Consider `C=CC(=O)N1CC(F)(C(=O)N2CCC(n3ncc(-c4cc(OC)c5c(C#N)cnn5c4)c3CC)CC2)C1` [Example 96, 6-(1-(1-(1-acryloyl-3-fluoroazetidine-3-carbonyl)piperidin-4-yl)-5-ethyl-1H-pyrazol-4-yl)-4-methoxypyrazolo[1,5-a]pyridine-3-carbonitrile], for which the figures for the IC50 in assay [1], in assay [2] and in assay [3] were 384 nM, 291 nM and 351 nM, respectively.

For `C=CC(=O)N1CC(C(=O)N2CCC(n3cc(-c4cc(OC)c5c(C#N)cnn5c4)c(CC)n3)CC2)C1` [Example 97, 6-(1-(1-(1-acryloylazetidine-3-carbonyl)piperidin-4-yl)-3-ethyl-1H-pyrazol-4-yl)-4-methoxypyrazolo[1,5-a]pyridine-3-carbonitrile], the IC50 in assay [1] is 117 nM; in assay [2], 72 nM; in assay [3], 384 nM.

As to `C=CC(=O)N1CC(C(=O)N2CCC3(CC2)CN(c2ccc(-c4cc(OC)c5c(C#N)cnn5c4)cn2)C3)C1` [Example 102, 6-(6-(7-(1-acryloylazetidine-3-carbonyl)-2,7-diazaspiro[3.5]nonan-2-yl)pyridin-3-yl)-4-methoxypyrazolo[1,5-a]pyridine-3-carbonitrile], the IC50 amounted to 38 nM in assay [1], 22 nM in assay [2] and 44 nM in assay [3].

In the case of `C=CC(=O)N1CC(C(=O)N2CCC3(C2)CN(c2ccc(-c4cc(OC)c5c(C#N)cnn5c4)cn2)C3)C1` [Example 103, 6-(6-(6-(1-acryloylazetidine-3-carbonyl)-2,6-diazaspiro[3.4]octan-2-yl)pyridin-3-yl)-4-methoxypyrazolo[1,5-a]pyridine-3-carbonitrile], the IC50 was determined as 49 nM in assay [1], 20 nM in assay [2] and 137 nM in assay [3].

Regarding `C=CC(=O)N1CC(C(=O)N2CC3(C2)CN(c2ccc(-c4cc(OC)c5c(C#N)cnn5c4)cn2)C3)C1` [Example 104, 6-(6-(6-(1-acryloylazetidine-3-carbonyl)-2,6-diazaspiro[3.3]heptan-2-yl)pyridin-3-yl)-4-methoxypyrazolo[1,5-a]pyridine-3-carbonitrile], the IC50 is 63 nM in assay [1], 20 nM in assay [2] and 146 nM in assay [3].

In the case of `C=CC(=O)N1CC(C(=O)N2CC3CC(C2)N3c2ccc(-c3cc(OC)c4c(C#N)cnn4c3)cn2)C1` [Example 105, 6-(6-(3-(1-acryloylazetidine-3-carbonyl)-3,6-diazabicyclo[3.1.1]heptan-6-yl)pyridin-3-yl)-4-methoxypyrazolo[1,5-a]pyridine-3-carbonitrile], the IC50 in assay [1] turned out to be 193 nM; in assay [2] it was 125 nM; in assay [3] it was 2660 nM.

As for `C=CC(=O)N1CC(C(=O)N2C[C@@H]3C[C@H]2CN3c2ccc(-c3cc(OC)c4c(C#N)cnn4c3)cn2)C1` [Example 106, 6-(6-((1S,4S)-5-(1-acryloylazetidine-3-carbonyl)-2,5-diazabicyclo[2.2.1]heptan-2-yl)pyridin-3-yl)-4-methoxypyrazolo[1,5-a]pyridine-3-carbonitrile], the values for the IC50 in assay [1], in assay [2] and in assay [3] were 61 nM, 25 nM and 244 nM, respectively.

Take `C=CC(=O)N1CC(C(=O)N2C[C@H]3C[C@@H]2CN3c2ccc(-c3cc(OC)c4c(C#N)cnn4c3)cn2)C1` [Example 107, 6-(6-((1R,4R)-5-(1-acryloylazetidine-3-carbonyl)-2,5-diazabicyclo[2.2.1]heptan-2-yl)pyridin-3-yl)-4-methoxypyrazolo[1,5-a]pyridine-3-carbonitrile]: the results for the IC50 in assay [1], in assay [2] and in assay [3] were 68 nM, 27 nM and 355 nM, respectively.

Take `C=CC(=O)N1CC(CN2C[C@H]3C[C@@H]2CN3c2ccc(-c3cc(OC)c4c(C#N)cnn4c3)cn2)C1` [Example 108, 6-(6-((1R,4R)-5-((1-acryloylazetidin-3-yl)methyl)-2,5-diazabicyclo[2.2.1]heptan-2-yl)pyridin-3-yl)-4-methoxypyrazolo[1,5-a]pyridine-3-carbonitrile]: the IC50 in assay [1] came out at 20 nM; in assay [2], 10 nM; in assay [3], 47 nM.

For the compound `C=CC(=O)N1CC(F)(C(=O)N2CCN(c3ccc(-c4cc(OC)c5c(C#N)cnn5c4)cn3)CC2)C1` [Example 112, 6-(6-(4-(1-acryloyl-3-fluoroazetidine-3-carbonyl)piperazin-1-yl)pyridin-3-yl)-4-methoxypyrazolo[1,5-a]pyridine-3-carbonitrile], the values for the IC50 in assay [1], in assay [2] and in assay [3] were 21 nM, 20 nM and 21 nM, respectively.

Take `C=CC(=O)N1CC(C(=O)N2CCN(c3ncc(-c4cc(OC)c5c(C#N)cnn5c4)cc3C)CC2)C1` [Example 113, 6-(6-(4-(1-acryloylazetidine-3-carbonyl)piperazin-1-yl)-5-methylpyridin-3-yl)-4-methoxypyrazolo[1,5-a]pyridine-3-carbonitrile]: the IC50 in assay [1] was determined as 107 nM; in assay [2], 105 nM; in assay [3], 186 nM.

With `C=CC(=O)N1CC(F)(C(=O)N2CCN(c3cc(C)c(-c4cc(OC)c5c(C#N)cnn5c4)cn3)CC2)C1` [Example 114, 6-(6-(4-(1-acryloyl-3-fluoroazetidine-3-carbonyl)piperazin-1-yl)-4-methylpyridin-3-yl)-4-methoxypyrazolo[1,5-a]pyridine-3-carbonitrile], the figures for the IC50 in assay [1], in assay [2] and in assay [3] were 308 nM, 258 nM and 248 nM, respectively.

Take `C=CC(=O)N1CC(C(=O)N2CCN(c3ccc(-c4cc(OC)c5c(C#N)cnn5c4)nn3)CC2)C1` [Example 115, 6-(6-(4-(1-acryloylazetidine-3-carbonyl)piperazin-1-yl)pyridazin-3-yl)-4-methoxypyrazolo[1,5-a]pyridine-3-carbonitrile]: the results for the IC50 in assay [1], in assay [2] and in assay [3] were 85 nM, 18 nM and 1240 nM, respectively.

As for `C=CC(=O)N1CC(C(=O)N2CCN(c3cnc(-c4cc(OC)c5c(C#N)cnn5c4)cn3)CC2)C1` [Example 116, 6-(5-(4-(1-acryloylazetidine-3-carbonyl)piperazin-1-yl)pyrazin-2-yl)-4-methoxypyrazolo[1,5-a]pyridine-3-carbonitrile], the IC50 stood at 54 nM in assay [1], 27 nM in assay [2] and 164 nM in assay [3].

As to `C=CC(=O)N1CC(OC)(C(=O)N2CCC(n3ncc(-c4cc(OC)c5c(Cl)cnn5c4)c3C)CC2)C1` [Example 117, 1-(3-(4-(4-(3-chloro-4-methoxypyrazolo[1,5-a]pyridin-6-yl)-5-methyl-1H-pyrazol-1-yl)piperidine-1-carbonyl)-3-methoxyazetidin-1-yl)prop-2-en-1-one], the results for the IC50 in assay [1], in assay [2] and in assay [3] were 789 nM, 43 nM and 36 nM, respectively.

Turning to `C=CC(=O)N1CC(CN2CCC(n3ncc(-c4cc(OC)c5c(Cl)cnn5c4)c3C)CC2)C1` [Example 118, 1-(3-((4-(4-(3-chloro-4-methoxypyrazolo[1,5-a]pyridin-6-yl)-5-methyl-1H-pyrazol-1-yl)piperidin-1-yl)methyl)azetidin-1-yl)prop-2-en-1-one], the IC50 in assay [1] worked out at 551 nM; in assay [2] it was 41 nM; in assay [3] it was 62 nM.

On to `C=CC(=O)N1CC(CN2CCC(n3ncc(-c4cc(OC)c5c(Cl)cnn5c4)c3C)CC2)(OC)C1` [Example 119, 1-(3-((4-(4-(3-chloro-4-methoxypyrazolo[1,5-a]pyridin-6-yl)-5-methyl-1H-pyrazol-1-yl)piperidin-1-yl)methyl)-3-methoxyazetidin-1-yl)prop-2-en-1-one], for which the IC50 is 334 nM in assay [1], 39 nM in assay [2] and 50 nM in assay [3].
